Source: patent publication US11932626B2, “2-pyrimidone analogs as potent antiviral agents against Alphaviruses” (priority 2020, dated 2024)

Experiments:
VEEV (TC-83) = test: microbe, parasite or virus in culture; type: cell-based; conditions: Venezuelan equine encephalitis virus, read-out: VEEV EC50
VEEV = test: microbe, parasite or virus in culture; type: cell-based; conditions: Venezuelan equine encephalitis virus, NHDF; for EC90: read-out: VEEV EC90; for log reduction at 10 µM: read-out: VEEV VTR
[1] = test system: CHIKV linked NanoLuc luciferase reporter; test: microbe, parasite or virus in culture; type: cell-based; conditions: Chikungunya virus, read-out: CHIKV EC50
in vitro = conditions: human
[2] = test system: Chikungunya virus (CHIKV) strain SL15649; test: CHIKV-infected mice, 5 days oral treatment: tissue viral loads
CHIKV = CHIKV virus titer reduction (VTR) assay in NHDF cells; type: cell-based; conditions: Chikungunya virus; for log reduction at 10 µM: CHIKV titer reduction at 10 μM, normal human dermal fibroblasts (NHDF) cells; for EC90: effective concentration of 90% inhibition of virus in a VTR assay, NHDF cells
[3] = test system: Chikungunya virus (CHIKV) strain SL15649; test: CHIKV-infected mice, 10 days oral treatment: footpad swelling and viremia

| SMILES | EC50 (VEEV (TC-83)) [µM] | EC90 (VEEV) [µM] | log reduction at 10 µM (VEEV) | EC50 [1] [µM] | CC50 (in vitro) [µM] | Adverse toxicity ([2]; mice treated three times per day for 5 days per os) | Infectious viral loads in Ipsilateral ankle ([2]; mice, 40 mg/kg 3× daily p.o., 5 dpi, p<0.0001) | Infectious viral loads in Contralateral ankle ([2]; mice, 40 mg/kg 3× daily p.o., 5 dpi, p=0.0009) | log reduction at 10 µM (CHIKV) | EC90 (CHIKV) [µM] | Adverse toxicity ([3]; mice treated three times per day for 10 days per os) | Footpad swelling in the ipsilateral foot ([3]; mice, 40 mg/kg 3× daily p.o., days 3-8, compared to vehicle treated mice) | Viral loads in serum ([3]; mice, 40 mg/kg 3× daily p.o., serum at 3 days post infection, p=0.0003) | Tissue distribution ([3]; mice, per os three times per day) |
| --- | --- | --- | --- | --- | --- | --- | --- | --- | --- | --- | --- | --- | --- | --- |
| O=C(COc1cc[nH]c(=O)n1)NC12CC3CC(CC(C3)C1)C2 [Compound No. 7, N-(Adamantan-1-Yl)-2-((2-Oxo-1,2-Dihydropyrimidin-4-Yl)Oxy)Acetamide] | 38.8 | 1.1 | 1.79 | 3.2 | > 40 | No adverse toxicity was observed | reduced infectious viral loads | reduced infectious viral loads | 3.68 | 0.7 | No adverse toxicity was observed | reduced swelling in the ipsilateral foot at days 3, 4, 5, 6, 7, and 8 | did not have detectable viral loads in serum samples | distributed to a number of tissue types including joints and muscles |
| COCCOc1cc(OCC(=O)NC23CC4CC(CC(C4)C2)C3)nc(=O)[nH]1 [compound 49, N-(Adamantan-1-Yl)-2-((6-(2-Methoxyethoxy)-2-Oxo-1,2-Dihydropyrimidin-4-Yl)Oxy)Acetamide] | 38.6 | > 10 | 0 | 3.08 | > 40 | – | – | – | 3.73 | 1.3 | – | – | – | – |
| O=C(COc1nc(=O)[nH]c(OCCO)c1F)NC12CC3CC(CC(C3)C1)C2 [compound 50, N-(adamantan-1-yl)-2-((5-fluoro-6-(2-hydroxyethoxy)-2-oxo-1,2-dihydropyrimidin-4-yl)oxy)acetamide] | > 40 | > 10 | 0.5 | 25.4 | > 40 | – | – | – | 0 | > 10 | – | – | – | – |
| CC(C)(C)COc1cc(OCC(=O)NC23CC4CC(CC(C4)C2)C3)nc(=O)[nH]1 [compound 51, N-(Adamantan-1-Yl)-2-((6-(Neopentyloxy)-2-Oxo-1,2-Dihydropyrimidin-4-Yl)Oxy)Acetamide] | > 40 | 0.1 | 3.85 | 7.43 | > 40 | – | – | – | 3.77 | 0.75 | – | – | – | – |
| CC(C)(C#N)COc1cc(OCC(=O)NC23CC4CC(CC(C4)C2)C3)nc(=O)[nH]1 [compound 52, N-(Adamantan-1-Yl)-2-((6-(2-Cyano-2-Methylpropoxy)-2-Oxo-1,2-Dihydropyrimidin-4-Yl)Oxy)Acetamide] | > 40 | 2.5 | 2.5 | 13.7 | > 40 | – | – | – | 2.42 | 2.5 | – | – | – | – |
| CCOc1cc(OCC(=O)NC23CC4CC(CC(C4)C2)C3)nc(=O)[nH]1 [compound 55, N-(Adamantan-1-Yl)-2-((6-Ethoxy-2-Oxo-1,2-Dihydropyrimidin-4-Yl)Oxy)Acetamide] | 2.78 | > 10 | 0.05 | 0.179 | > 40 | – | – | – | 4 | 0.14 | – | – | – | – |
| CCC(C)Oc1cc(OCC(=O)NC23CC4CC(CC(C4)C2)C3)nc(=O)[nH]1 (centres unmarked) [compound 56, N-(adamantan-1-yl)-2-((6-(sec-butoxy)-2-oxo-1,2-dihydropyrimidin-4-yl)oxy)acetamide] | 16.2 | > 10 | 0 | 0.701 | > 40 | – | – | – | 6.6 | 0.17 | – | – | – | – |
